Measured values as given in patent US20240269146A1, “USE OF PELABRESIB FOR TREATING ANEMIAS” (Constellation Pharmaceuticals, Inc., priority 2021, published 2024).
Entries after “also recorded” stand apart in the source; their conditions may differ.

Experiment: Pelabresib Form A monohydrate administered to human subjects with myelofibrosis, with or without ruxolitinib (FIG. 1)
Format: in vivo
Conditions: median starting dose 125 mg QD, max 225 mg QD, median duration 47 weeks
Procedure: Pelabresib Form A monohydrate was administered to human subjects (with or without ruxolitinib) with a median starting dose of 125 mg QD and a max dose of 225 mg QD for a median duration of 47 weeks. The results of this study are shown in FIG. 1 (Arm 1 being pelabresib Form A and Arm 2 being pelabresib Form A in combination with ruxolitinib).

SMILES: Cc1noc2c1-c1ccccc1C(c1ccc(Cl)cc1)=N[C@H]2CC(N)=O [pelabresib, 2-((4S)-6-(4-chlorophenyl)-1-methyl-4H-benzo[c]isoxazolo[4,5-e]azepin-4-yl)acetamide]
- hemoglobin: improving hemoglobin
- reticulocyte count (number of reticulocytes): increases the number of reticulocytes; also recorded: effective in increasing reticulocytes
